Consider one compound from patent publication US20190274974A1, “Treatment of Pain Associated with Trigeminal Neuralgia” (priority 2011, published 2019).

Entries after “also recorded” stand apart in the source; their conditions may differ.

The conditions of test [1]: human, in vivo; cited from earlier work.
The test system of test [2] is mRNA encoding ATF3, IL-6, BDNF and iNOS. In words: Real-time qRT-PCR of mRNA levels in ganglia and central tissues of CCI-SN rats. The test is classed as in vivo, rat. As to conditions: subchronic 10 mg/kg i.p. twice daily; ipsilateral DRG and dorsal quadrant of lumbar spinal cord; day 20. The method, then:
Real-time qRT-PCR determinations were made on the 20th day after CCI-SN or sham operation. Saline or Tapentadol was administered at days 16-20 under treatment conditions according to Example 2 (subchronic treatment conditions). Rats were decapitated 4 h after the last injection on day 20, tissues were immediately dissected in the cold (0° C.) and processed for mRNA extraction and quantification as described by Latrémolière et al. (J. Neurosci. 2008, 28, 8489-8501).
mRNA levels are expressed with reference to transcript encoding the […] GaPDH (glyceraldehyde 3-phosphate dehydrogenase). Each bar is the mean±S.E.M. of 4-6 independent determinations.

The next test concerns CCI-ION rats. The class given is in vivo, rat. The method, then:
Rats are anaesthetized with sodium pentobarbital (50 mg/kg i.p.). Unilateral CCI-ION is performed under direct visual control using a Zeiss microscope (10-25×) essentially as described by Vos et al (Vos B P, Strassman A M, Maciewicz R J (1994), J. Neurosci. 14: 2708-2723). Briefly, the head is fixed in a Horsley-Clarke stereotaxic frame and a midline scalp incision is made, exposing skull and nasal bone. The edge of the orbit, formed by the maxillary, frontal, lacrimal, and zygomatic bones, is dissected free. The orbital contents are gently deflected to give access to the infraorbital nerve which is dissected free at its most rostral extent in the orbital cavity, just caudal to the infraorbital foramen. Only 5 mm of the nerve can be freed (Vos et al.), providing the space for placement of two chromic catgut (5-0) ligations tied loosely (with about 2 mm spacing) around it. […] Finally, scalp incision is closed using silk sutures (4-0). In sham-operated rats, the ION is exposed using the […] procedure, but is not ligated.
Mechanical sensitivity is determined with a graded series of eleven von Frey filaments (Bioseb, Bordeaux, France). The filaments produce a bending force of 0.07, 0.16, 0.40, 0.60, 1.00, 2.00, 4.00, 6.00, 8.00, 10.00 and 12.00 g, respectively. The stimuli are applied within the ION territory (vibrissae pad) three times at the nerve-injured side and then at the contralateral side for a total of 6 applications of each filament per rat, always beginning with the filament producing the lowest force. The von Frey filaments are applied at least 3 seconds after the rats returned to their initial resting state. For each session, the complete series of von Frey filaments is tested in increasing force order.
The latter responses represent the highest scores in the rank-ordered response scoring system initially described by Vos et al. The minimal force filament causing at least one among these responses (to at least 2 out of the 3 an each side) allows determination of the mechanical response threshold. The 12.00 g filament is the cut-off threshold (no tissue-injury occurs at this pressing force).
For studying the effects of acute treatment with tapentadol in CCI-ION rats, tapentadol (1 or 10 mg/kg i.p.) or its vehicle (0.9% NaCl i. p.) was injected acutely 14 days after surgery. Sham-operated rats were treated in parallel. Pressure threshold values to trigger nocifensive responses to von Frey filaments application onto the plantar surface of ipsilateral hindpaw were determined at various times after acute injection of tapentadol or saline. Cut-off was fixed at 12 g pressure.
For studying the effects of subchronic treatment with tapentadol in CCI-ION rats, starting on day 16 (Time=D) after surgery, they received i.p. injections of tapentadol (10 mg/kg, twice daily, at 10:00 AM and 6:00 PM) or saline (at the same day times as the drug) for four days. On the following day (day 20 after surgery), both tapentadol- and saline-pretreated CCI-SN rats were i.p. injected with Tapentadol (10 mg/kg; Time=0) and then subjected to von Frey filaments' test applied to ipsilateral hindpaw for determination of pressure threshold values at various times thereafter.
14 days after CCI-ION surgery, rats were injected with reboxetine (10 mg/kg i.p.) or its vehicle (0.9% NaCl) followed, 15 min later, by morphine (3 mg/kg s.c.) or its vehicle (0.9% NaCl) and subjected to von Frey filament tests for the following 4 hours. Sham-operated rats were treated in parallel.

Regarding `CC[C@@H](c1cccc(O)c1)[C@@H](C)CN(C)C` [tapentadol, (−)-(1R,2R)-3-(3-dimethylamino-1-ethyl-2-methyl-propyl)-phenol], the “pain-alleviating action relative to morphine” value in test [1] is listed as “two to three times less”. Moreover, the “levels of mRNA encoding ATF3, IL-6, BDNF and iNOS versus saline-treated CCI-SN rats” value in test [2] is recorded as “not significantly different”. In the test with CCI-ION rats (1 mg/kg i.p., acute), the “time for pressure threshold values to return to saline level after the maximum” value is on record as not above 45 min and the “time over which the increase in pressure threshold developed” value was 45 min. For the same compound, the “increase in pressure threshold value compared to saline-treated CCI-ION rats” value with CCI-ION rats (1 mg/kg i.p., acute, two weeks after surgery) was not above 6 fold. Also, the “anti-allodynic effect after subchronic pretreatment (sensitization/desensitization)” value in the test on CCI-ION rats (10 mg/kg i.p. twice daily for four days or saline, then 10 mg/kg i.p.) is “had the same characteristics (amplitude, duration); also recorded: neither in CCI-SN rats nor in those with CCI-ION, any sign of sensitization or desensitization”. Further, the “duration of statistically significant anti-allodynic effect” value in the test on CCI-ION rats (10 mg/kg i.p., acute) is reported as “more than two hours”. For the same compound, the “pressure threshold values relative to those determined prior to injection” value with CCI-ION rats (10 mg/kg i.p., acute, 30-60 min after injection) was 15-20 fold.
